According to ChEMBL document CHEMBL1148569, “Aza-analogues of the marine pyrroloquinoline alkaloids wakayin and tsitsikammamines: synthesis and topoisomerase inhibition” (Bioorg Med Chem Lett, 2006):
The source made the active and inactive calls. The calls are words filed in the database; no cut-off is given here.

How the values were obtained:
[1] = target: T1, DNA topoisomerase 1 (Homo sapiens) (UniProt P11387); test: Inhibition of Topoisomerase 1 mediated DNA cleavage activity in a cell free assay at 100 uM
T1 sequence (whole entry): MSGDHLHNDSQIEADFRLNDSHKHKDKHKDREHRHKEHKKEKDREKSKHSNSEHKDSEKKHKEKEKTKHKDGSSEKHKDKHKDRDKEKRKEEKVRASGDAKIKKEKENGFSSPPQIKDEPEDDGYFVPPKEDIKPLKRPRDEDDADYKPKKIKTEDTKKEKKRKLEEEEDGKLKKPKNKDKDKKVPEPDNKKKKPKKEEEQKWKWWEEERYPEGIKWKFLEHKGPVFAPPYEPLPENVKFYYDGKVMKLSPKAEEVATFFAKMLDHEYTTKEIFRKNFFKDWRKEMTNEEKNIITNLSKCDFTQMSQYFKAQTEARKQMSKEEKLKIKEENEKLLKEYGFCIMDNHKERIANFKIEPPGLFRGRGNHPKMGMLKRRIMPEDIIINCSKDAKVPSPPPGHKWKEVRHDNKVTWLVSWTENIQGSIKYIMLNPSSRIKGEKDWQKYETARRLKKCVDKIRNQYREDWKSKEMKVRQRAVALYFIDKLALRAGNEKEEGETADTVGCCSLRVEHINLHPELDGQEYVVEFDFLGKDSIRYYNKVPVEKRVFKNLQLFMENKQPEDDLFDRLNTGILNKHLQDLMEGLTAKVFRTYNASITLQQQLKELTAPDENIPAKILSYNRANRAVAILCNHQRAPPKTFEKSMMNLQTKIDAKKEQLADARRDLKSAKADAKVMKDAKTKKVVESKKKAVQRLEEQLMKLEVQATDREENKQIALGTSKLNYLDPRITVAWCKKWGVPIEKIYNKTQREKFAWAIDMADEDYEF

[2] = target: DNA topoisomerase II (Homo sapiens) (UniProt P11388+Q02880); test: Inhibition of Topoisomerase 2 mediated DNA cleavage activity in a cell free assay at 100 uM; type: protein assay

| SMILES | Activity [1] | Activity [2] |
| --- | --- | --- |
| O=C1c2[nH]ccc2C2=NCCc3n[nH]c1c32 | Active | inactive |
| O=C1c2cc[nH]c2C2=NCCc3n[nH]c1c32 | inactive | inactive |
